Experimental data from publication PMC9115112, “A2B adenosine receptor antagonists rescue lymphocyte activity in adenosine-producing patient-derived cancer models” (Journal for Immunotherapy of Cancer, 2022).

Experiments:
human A2BAR = target: T1, human A2BAR (Homo sapiens, UniProt P29275); assay: Radioligand binding, human A2BAR ([3H]DPCPX, transfected HEK-293 cells); conditions: displacement of [3H]DPCPX, human HEK-293 cells, n=3, racemic mixtures; read-out: Ki hA2B
T1 construct: expressed in transfected cells; host or cells: HEK-293
T1 sequence (P29275 1-332): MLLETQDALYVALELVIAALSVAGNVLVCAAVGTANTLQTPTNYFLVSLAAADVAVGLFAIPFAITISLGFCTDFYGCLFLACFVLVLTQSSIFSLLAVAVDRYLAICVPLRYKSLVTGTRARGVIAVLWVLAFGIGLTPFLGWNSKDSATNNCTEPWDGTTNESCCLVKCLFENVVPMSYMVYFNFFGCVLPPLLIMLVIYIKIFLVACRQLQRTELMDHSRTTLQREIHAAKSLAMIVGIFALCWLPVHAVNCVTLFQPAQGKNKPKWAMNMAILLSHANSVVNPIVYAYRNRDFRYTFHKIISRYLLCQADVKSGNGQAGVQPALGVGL
Protocol: (§1) The affinity and selectivity profiles of the ligands obtained was studied in vitro, radioligand binding assays, at the four human specific ARs subtypes, using experimental protocols previously described.[28–30] All ligands were prepared and tested as racemic mixtures. […] Non-specific binding was determined in the presence of R-PIA 10 µM for A1AR, NECA 50 µM for A2AAR, NECA 400 μΜ for A2BAR and R-PIA 100 μΜ for A3AR.

human A1AR = target: T2, human A1AR (Homo sapiens, UniProt P30542); assay: Radioligand binding, human A1AR ([3H]DPCPX, transfected CHO cells); conditions: displacement of [3H]DPCPX, transfected CHO cells, n=3, racemic mixtures; read-out: Ki hA1
T2 construct: expressed in transfected cells; host or cells: CHO
T2 sequence (P30542 1-326): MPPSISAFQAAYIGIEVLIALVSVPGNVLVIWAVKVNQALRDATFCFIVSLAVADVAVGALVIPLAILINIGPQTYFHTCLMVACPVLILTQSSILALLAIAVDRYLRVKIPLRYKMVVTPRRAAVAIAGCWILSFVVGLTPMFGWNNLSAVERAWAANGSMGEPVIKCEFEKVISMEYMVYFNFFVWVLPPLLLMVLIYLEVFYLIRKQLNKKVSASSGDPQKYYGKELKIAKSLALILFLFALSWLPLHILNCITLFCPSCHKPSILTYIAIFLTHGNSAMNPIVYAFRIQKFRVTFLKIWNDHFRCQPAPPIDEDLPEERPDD
Protocol: as §1

human A3AR = target: T3, human A3AR (Homo sapiens, UniProt P0DMS8); assay: Radioligand binding, human A3AR ([3H]NECA, transfected HeLa cells); conditions: displacement of [3H]NECA, n=3, racemic mixtures, read-out: Ki hA3
T3 construct: expressed in transfected cells; host or cells: HeLa
T3 sequence (P0DMS8 1-318): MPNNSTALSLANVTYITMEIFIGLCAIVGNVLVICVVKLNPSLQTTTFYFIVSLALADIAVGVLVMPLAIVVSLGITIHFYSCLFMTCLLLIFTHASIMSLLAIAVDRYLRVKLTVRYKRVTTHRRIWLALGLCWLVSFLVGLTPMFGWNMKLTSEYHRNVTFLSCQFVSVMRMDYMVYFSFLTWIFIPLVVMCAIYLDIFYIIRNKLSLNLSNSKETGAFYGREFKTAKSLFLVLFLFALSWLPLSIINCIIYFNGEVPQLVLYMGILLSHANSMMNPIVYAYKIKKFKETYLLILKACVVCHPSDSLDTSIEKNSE
Protocol: as §1

human A2AAR = target: T4, human A2AAR (Homo sapiens, UniProt P29274); assay: Radioligand binding, human A2AAR ([3H]ZM241385, transfected HeLa cells); conditions: displacement of [3H]ZM241385, human HeLa cells, n=3, racemic mixtures; read-out: Ki hA2A
T4 construct: expressed in transfected cells; host or cells: HeLa
Protocol: as §1

Measured: Ki

T4 sequence (P29274 whole entry): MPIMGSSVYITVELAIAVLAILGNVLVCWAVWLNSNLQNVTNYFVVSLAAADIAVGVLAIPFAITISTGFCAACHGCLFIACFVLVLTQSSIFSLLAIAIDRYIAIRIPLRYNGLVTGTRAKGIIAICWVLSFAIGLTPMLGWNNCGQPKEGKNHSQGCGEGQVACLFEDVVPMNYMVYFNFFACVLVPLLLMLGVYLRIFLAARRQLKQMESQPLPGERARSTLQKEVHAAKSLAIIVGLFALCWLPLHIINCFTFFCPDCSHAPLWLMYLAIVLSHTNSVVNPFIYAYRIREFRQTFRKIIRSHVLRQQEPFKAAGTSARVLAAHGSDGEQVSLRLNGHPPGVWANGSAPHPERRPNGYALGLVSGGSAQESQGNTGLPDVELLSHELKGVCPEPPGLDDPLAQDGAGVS

CC1=C(C(=O)OC(C)C)C(c2ccco2)N2C(=N1)N(Cc1ccccc1F)c1ccccc12 (stereo not shown) [ISAM-R56B]
> 1000 nM: all assays above
